How the values were obtained:
A/M2-V27A mutant channel = A/M2-V27A mutant channel (Influenza A virus, UniProt P0DOF5, V27A); assay type: cell-based
A/M2 S31N mutant = A/M2 S31N mutant (Influenza A virus, UniProt P0DOF5, S31N); assay type: cell-based

Compound | percentage inhibition against V27A mutant of A/M2 (A/M2-V27A mutant channel; 100 µM) | inhibitory effect on V27A mutant (in words) (A/M2-V27A mutant channel) | inhibitory effect on S31N mutant (in words) (A/M2 S31N mutant)
Cl.NC12CC3CC(CC(C3)C1)C2 [Amantadine, reference compound] | 0% | – | –
Cl.NC(CO)C12CC3CC(CC(C3)C1)C2 (stereo not drawn) [Compound 27] | – | no inhibitory effect | no inhibitory effect

Reference: paper PMC3116712 (ACS medicinal chemistry letters, 2011)
